According to patent publication US7163952B2, “Azole compound and medicinal use thereof” (Japan Tobacco Inc., priority 2001, dated 2007):

For `O=C(O)c1ccc(N(CC2CCCCC2)c2nc(-c3ccc(NCc4ccc(C(F)(F)F)cc4)cc3)cs2)cc1` [Example 134, 4-(N-cyclohexylmethyl-N-(4-(4-(4-trifluoromethylbenzylamino)phenyl)-2-thiazolyl)amino)benzoic acid], which melting point is on record?
The melting point was 199 to 203 °C.

Which melting point does the source give for `CN(Cc1ccc(C(F)(F)F)cc1)c1ccc(-c2csc(N(C)c3ccc(C(=O)O)cc3)n2)cc1` [Example 137, 4-(N-methyl-N-(4-(4-(N-methyl-N-(4-trifluoromethylbenzyl)amino)phenyl)-2-thiazolyl)amino)benzoic acid] here?
Its melting point is 218 to 220 °C.

For `O=C(O)c1ccc(Nc2nc(-c3cccc(OCc4ccc(C5CCCCC5)cc4)c3)cs2)cc1` [Example 138, 4-(4-(3-(4-cyclohexylbenzyloxy)phenyl)-2-thiazolylamino)benzoic acid], which melting point is on record?
Its melting point is 235 to 236 °C.

With `CN(c1ccc(C(=O)O)cc1)c1nc(-c2cccc(OCc3ccc(C4CCCCC4)cc3)c2)cs1` [Example 139, 4-(N-(4-(3-(4-cyclohexylbenzyloxy)phenyl)-2-thiazolyl)-N-methylamino)benzoic acid] as the molecule, how does the melting point read?
Its melting point is 250 °C (dec.).

With `CCN(c1ccc(C(=O)O)cc1)c1nc(-c2cccc(OCc3ccc(C4CCCCC4)cc3)c2)cs1` [Example 140, 4-(N-(4-(3-(4-cyclohexylbenzyloxy)phenyl)-2-thiazolyl)-N-ethylamino)benzoic acid] as the molecule, how does the melting point read?
Its melting point is 179 to 180 °C.

With `CC(C)N(c1ccc(C(=O)O)cc1)c1nc(-c2cccc(OCc3ccc(C4CCCCC4)cc3)c2)cs1` [Example 141, 4-(N-(4-(3-(4-cyclohexylbenzyloxy)phenyl)-2-thiazolyl)-N-isopropylamino)benzoic acid] as the molecule, how does the melting point read?
Its melting point is 189 to 190 °C.

Which melting point does the source give for `O=C(O)c1ccc(N(CC2CCCCC2)c2nc(-c3cccc(OCc4ccc(C5CCCCC5)cc4)c3)cs2)cc1` [Example 142, 4-(N-(4-(3-(4-cyclohexylbenzyloxy)phenyl)-2-thiazolyl)-N-cyclohexylmethylamino)benzoic acid] here?
The melting point was 195 to 197 °C.

With `CC(C)N(Cc1ccc(C(=O)O)cc1)c1nc(-c2cccc(NC(=O)c3ccc(C4CCCCC4)cc3)c2)cs1` [Example 146, 4-((N-(4-(3-(4-cyclohexylbenzoylamino)phenyl)-2-thiazolyl)-N-isopropylamino)methyl)benzoic acid] as the molecule, how does the melting point read?
Its melting point is 228 to 230 °C.

Which melting point does the source give for `O=C(O)c1ccc(Nc2nc(-c3cc(Cl)ccc3OCc3ccccc3)cs2)cc1` [Example 148, 4-(4-(2-benzyloxy-5-chlorophenyl)-2-thiazolylamino)benzoic acid] here?
Its melting point is 208 to 211 °C.

With `CC(C)(c1ccc(C(=O)O)cc1)c1nc(-c2cc(Cl)ccc2OCc2ccccc2)cs1` [Example 149, 4-(1-(4-(2-benzyloxy-5-chlorophenyl)-2-thiazolyl)-1-methylethyl)benzoic acid] as the molecule, how does the melting point read?
Its melting point is 152 to 154 °C.

For `O=C(O)c1ccc(Nc2nc(-c3cc(Cl)ccc3OCc3ccccc3)cs2)c(OCCC2CCCCC2)c1` [Example 150, 4-(4-(2-benzyloxy-5-chlorophenyl)-2-thiazolylamino)-3-(2-cyclohexylethoxy)benzoic acid], which melting point is on record?
Its melting point is 230 °C (dec.).

With `CN(c1ccc(C(=O)O)cc1)c1nc(-c2cc(Cl)ccc2OCc2ccccc2)cs1` [Example 151, 4-(N-(4-(2-benzyloxy-5-chlorophenyl)-2-thiazolyl)-N-methylamino)benzoic acid] as the molecule, how does the melting point read?
The melting point was 211 to 212 °C.

For `O=C(O)c1ccc(N(CCC2CCCCC2)c2nc(-c3cc(Cl)ccc3OCc3ccccc3)cs2)cc1` [Example 152, 4-(N-(4-(2-benzyloxy-5-chlorophenyl)-2-thiazolyl)-N-(2-cyclohexylethyl)amino)benzoic acid], which melting point is on record?
Its melting point is 160 to 163 °C.

For `O=C(O)c1ccc(N(CCOc2ccccc2)c2nc(-c3cc(Cl)ccc3OCc3ccccc3)cs2)cc1` [Example 153, 4-(N-(4-(2-benzyloxy-5-chlorophenyl)-2-thiazolyl)-N-(2-phenoxyethyl)amino)benzoic acid], which melting point is on record?
Its melting point is 152 to 155 °C.

With `COc1ccc(OCc2ccccc2)c(-c2csc(Nc3ccc(C(=O)O)cc3)n2)c1` [Example 154, 4-(4-(2-benzyloxy-5-methoxyphenyl)-2-thiazolylamino)benzoic acid] as the molecule, how does the melting point read?
Its melting point is 184 to 185 °C.

Which melting point does the source give for `COc1ccc(OCc2ccc(C(F)(F)F)cc2)c(-c2csc(Nc3ccc(C(=O)O)cc3)n2)c1` [Example 155, 4-(4-(5-methoxy-2-(4-trifluoromethylbenzyloxy)phenyl)-2-thiazolylamino)benzoic acid] here?
Its melting point is 218 to 219 °C.

For `COc1ccc(OCc2ccccc2)c(-c2csc(Nc3ccc(C(=O)O)cc3OCc3ccccc3)n2)c1` [Example 156, 3-benzyloxy-4-(4-(2-benzyloxy-5-methoxyphenyl)-2-thiazolylamino)benzoic acid], which melting point is on record?
Its melting point is 218 to 221 °C.

Which melting point does the source give for `COc1ccc(OCc2ccc(C3CCCCC3)cc2)c(-c2csc(Nc3ccc(C(=O)O)cc3)n2)c1` [Example 157, 4-(4-(2-(4-cyclohexylbenzyloxy)-5-methoxyphenyl)-2-thiazolylamino)benzoic acid] here?
Its melting point is 230 to 234 °C.

With `O=C(O)c1cc(Cc2nc(-c3cc(Cl)ccc3OCc3ccccc3)cs2)ccc1O` [Example 158, 5-(4-(2-benzyloxy-5-chlorophenyl)-2-thiazolylmethyl)-2-hydroxybenzoic acid] as the molecule, how does the melting point read?
The melting point was 212 to 213 °C.

With `O=C(O)c1ccc(N(Cc2ccc(C(F)(F)F)cc2)c2nc(-c3cc(Cl)ccc3OCc3ccccc3)cs2)cc1` [Example 159, 4-(N-(4-(2-benzyloxy-5-chlorophenyl)-2-thiazolyl)-N-(4-trifluoromethylbenzyl)amino)benzoic acid] as the molecule, how does the melting point read?
The melting point was 194 to 196 °C.

Which melting point does the source give for `O=C(O)c1ccc(N(CC2CCCCC2)c2nc(-c3cc(Cl)ccc3OCc3ccccc3)cs2)cc1` [Example 160, 4-(N-(4-(2-benzyloxy-5-chlorophenyl)-2-thiazolyl)-N-cyclohexylmethylamino)benzoic acid] here?
The melting point was 184 to 185 °C.

Which melting point does the source give for `O=C(O)c1ccc(CNc2nc(-c3cc(Cl)ccc3OCc3ccccc3)cs2)cc1` [Example 162, 4-((4-(2-benzyloxy-5-chlorophenyl)-2-thiazolylamino)methyl)benzoic acid] here?
Its melting point is 210 to 211 °C.

For `CN(Cc1ccc(C(=O)O)cc1)c1nc(-c2cc(Cl)ccc2OCc2ccccc2)cs1` [Example 163, 4-((N-(4-(2-benzyloxy-5-chlorophenyl)-2-thiazolyl)-N-methylamino)methyl)benzoic acid], which melting point is on record?
Its melting point is 169 to 171 °C.

Which melting point does the source give for `O=C(O)c1ccc(CN(CCC2CCCCC2)c2nc(-c3cc(Cl)ccc3OCc3ccccc3)cs2)cc1` [Example 164, 4-((N-(4-(2-benzyloxy-5-chlorophenyl)-2-thiazolyl)-N-(2-cyclohexylethyl)amino)methyl)benzoic acid] here?
Its melting point is 158 to 160 °C.

Which melting point does the source give for `O=C(O)c1ccc(CN(CCC2CCCCC2)c2nc(-c3cc(Cl)ccc3OCc3ccc(C(F)(F)F)cc3)cs2)cc1` [Example 165, 4-((N-(4-(5-chloro-2-(4-trifluoromethylbenzyloxy)phenyl)-2-thiazolyl)-N-(2-cyclohexylethyl)amino)methyl)benzoic acid] here?
The melting point was 171 to 172 °C.

Which melting point does the source give for `COc1ccc(OCc2ccc(C(F)(F)F)cc2)c(-c2csc(N(CCC3CCCCC3)Cc3ccc(C(=O)O)cc3)n2)c1` [Example 166, 4-((N-(2-cyclohexylethyl)-N-(4-(5-methoxy-2-(4-trifluoromethylbenzyloxy)phenyl)-2-thiazolyl)amino)methyl)benzoic acid] here?
Its melting point is 183 to 184 °C.

With `O=C(O)c1ccc(N(Cc2ccc(Cl)c(Cl)c2)c2nc(-c3cc(Cl)ccc3OCc3ccccc3)cs2)cc1` [Example 167, 4-(N-(4-(2-benzyloxy-5-chlorophenyl)-2-thiazolyl)-N-(3,4-dichlorobenzyl)amino)benzoic acid] as the molecule, how does the melting point read?
Its melting point is 196 to 198 °C.

With `CC(C)CCN(c1ccc(C(=O)O)cc1)c1nc(-c2cc(Cl)ccc2OCc2ccccc2)cs1` [Example 168, 4-(N-(4-(2-benzyloxy-5-chlorophenyl)-2-thiazolyl)-N-(3-methylbutyl)amino)benzoic acid] as the molecule, how does the melting point read?
Its melting point is 143 to 149 °C.

For `COc1ccc(OCc2ccccc2)c(-c2csc(N(CCC3CCCCC3)c3ccc(C(=O)O)cc3)n2)c1` [Example 169, 4-(N-(4-(2-benzyloxy-5-methoxyphenyl)-2-thiazolyl)-N-(2-cyclohexylethyl)amino)benzoic acid], which melting point is on record?
The melting point was 132 to 137 °C.

For `COc1ccc(OCc2ccc(C(F)(F)F)cc2)c(-c2csc(N(CCC3CCCCC3)c3ccc(C(=O)O)cc3)n2)c1` [Example 170, 4-(N-(2-cyclohexylethyl)-N-(4-(5-methoxy-2-(4-trifluoromethylbenzyloxy)phenyl)-2-thiazolyl)amino)benzoic acid], which melting point is on record?
The melting point was 104 to 107 °C.

Which melting point does the source give for `COc1ccc(OCc2ccc(C(F)(F)F)cc2)c(-c2csc(Nc3ccc(C(=O)O)cc3OCCC3CCCCC3)n2)c1` [Example 171, 3-(2-cyclohexylethoxy)-4-(4-(5-methoxy-2-(4-trifluoromethylbenzyloxy)phenyl)-2-thiazolylamino)benzoic acid] here?
The melting point was 111 to 114 °C.

For `O=C(O)c1cccc(N(CCC2CCCCC2)c2nc(-c3cc(Cl)ccc3OCc3ccccc3)cs2)c1` [Example 172, 3-(N-(4-(2-benzyloxy-5-chlorophenyl)-2-thiazolyl)-N-(2-cyclohexylethyl)amino)benzoic acid], which melting point is on record?
Its melting point is 170 to 171 °C.

With `CC(C)c1ccc(COc2ccc(Cl)cc2-c2csc(Nc3ccc(C(=O)O)cc3)n2)cc1` [Example 173, 4-(4-(5-chloro-2-(4-isopropylbenzyloxy)phenyl)-2-thiazolylamino)benzoic acid] as the molecule, how does the melting point read?
Its melting point is 215 to 218 °C.

With `O=C(O)c1ccc(N(CCC2CCCCC2)c2nc(-c3cc(F)ccc3OCc3ccccc3)cs2)cc1` [Example 174, 4-(N-(4-(2-benzyloxy-5-fluorophenyl)-2-thiazolyl)-N-(2-cyclohexylethyl)amino)benzoic acid] as the molecule, how does the melting point read?
The melting point was 125 to 130 °C.

Which melting point does the source give for `Cc1ccc(OCc2ccccc2)c(-c2csc(N(CCC3CCCCC3)c3ccc(C(=O)O)cc3)n2)c1` [Example 175, 4-(N-(4-(2-benzyloxy-5-methylphenyl)-2-thiazolyl)-N-(2-cyclohexylethyl)amino)benzoic acid] here?
The melting point was 148 to 150 °C.

With `CC(C)c1ccc(COc2ccc(Cl)cc2-c2csc(N(CCC3CCCCC3)c3ccc(C(=O)O)cc3)n2)cc1` [Example 176, 4-(N-(4-(5-chloro-2-(4-isopropylbenzyloxy)phenyl)-2-thiazolyl)-N-(2-cyclohexylethyl)amino)benzoic acid] as the molecule, how does the melting point read?
Its melting point is 190 to 192 °C.
